Test results: PubChem BioAssay AID330 (DTP/NCI, 2004)
Several values for one entry are separate records, joined by “and”; a condition that tells them apart may be missing. Equal values may be shown once. Toxic doses and inconclusive results are not listed. Rule for the calls: active = survival T/C of 150% or more; inactive = T/C below 125% in these data.

Tested on: P388 leukemia ip, CD2F1 mice, survival T/C
Experiment: NCI In Vivo Anticancer Drug Screen. Data for tumor model P388 Leukemia (intraperitoneal) in CD2F1 (CDF1) mice
Conditions: endpoint: median survival time, higher = longer survival
How it was run: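 Mice carrying the transplanted tumor received test compound or vehicle. Survival was recorded in each group, and the value is the treated-group measurement divided by that of the vehicle-treated control group.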

[1] = dose: 50.0 mg/kg/injection, schedule: Q01DX005 (ip), vehicle: saline + Tween-80 + alcohol
[2] = dose: 100.0 mg/kg/injection, schedule: Q01DX005 (ip), vehicle: saline + Tween-80 + alcohol
[3] = dose: 200.0 mg/kg/injection, schedule: Q01DX005 (ip), vehicle: saline + Tween-80 + alcohol
[4] = dose: 12.5 mg/kg/injection, schedule: Q01DX005 (ip), vehicle: saline with Tween-80
[5] = dose: 25.0 mg/kg/injection, schedule: Q01DX005 (ip), vehicle: saline with Tween-80
[6] = dose: 50.0 mg/kg/injection, schedule: Q01DX005 (ip), vehicle: Klucel (hydroxypropylcellulose) (HPC)
[7] = dose: 100.0 mg/kg/injection, schedule: Q01DX005 (ip), vehicle: Klucel (hydroxypropylcellulose) (HPC)
[8] = dose: 200.0 mg/kg/injection, schedule: Q01DX005 (ip), vehicle: Klucel (hydroxypropylcellulose) (HPC)
[9] = dose: 25.0 mg/kg/injection, schedule: Q04DX003 (ip), vehicle: saline
[10] = dose: 60.0 mg/kg/injection, schedule: Q01DX005 (ip), vehicle: saline with Tween-80
[11] = dose: 120.0 mg/kg/injection, schedule: Q01DX005 (ip), vehicle: saline with Tween-80
[12] = dose: 240.0 mg/kg/injection, schedule: Q01DX005 (ip), vehicle: saline with Tween-80
[13] = dose: 50.0 mg/kg/injection, schedule: Q01DX005 (ip), vehicle: saline
[14] = dose: 100.0 mg/kg/injection, schedule: Q01DX005 (ip), vehicle: saline
[15] = dose: 200.0 mg/kg/injection, schedule: Q01DX005 (ip), vehicle: saline

Measured: T/C

NSc1nc2ccccc2s1
inactive: dose: 100.0 mg/kg/injection, schedule: Q04DX003 (ip), vehicle: saline with Tween-80 100 % of control | dose: 200.0 mg/kg/injection, schedule: Q04DX003 (ip), vehicle: saline with Tween-80 100 % of control

COc1ccc(C(C)=C2C=C(C(C)(C)C)C(=O)C(C(C)(C)C)=C2)cc1
inactive: [1] 111 % of control | [2] 109 % of control | [3] 113 % of control

CCSc1ccc(N2C(N)=NC(N)=NC2(C)C)cc1
inactive: dose: 6.25 mg/kg/injection, schedule: Q01DX005 (ip), vehicle: saline with Tween-80 103 % of control | [4] 103 % of control | [5] 118 % of control

Cc1cc(C)nc(NS(=O)(=O)c2ccc(NC(=O)c3ccncc3)cc2)n1
inactive: [6] 95 % of control | [7] 96 % of control | [8] 91 % of control

Cc1ccc(S(=O)(=O)OC2CCN(C)CC2)cc1
inactive: [9] 113 % of control | dose: 50.0 mg/kg/injection, schedule: Q04DX003 (ip), vehicle: saline 102 % of control | dose: 100.0 mg/kg/injection, schedule: Q04DX003 (ip), vehicle: saline 99 % of control | dose: 200.0 mg/kg/injection, schedule: Q04DX003 (ip), vehicle: saline 104 % of control

CC1OC(c2ccc3c(c2O)C(=O)c2ccc(CC(C)(O)CC(=O)O)cc2C3=O)CC(O)C1O (configuration not stated)
inactive: [4] 90 % of control | [5] 93 % of control | dose: 50.0 mg/kg/injection, schedule: Q01DX005 (ip), vehicle: saline with Tween-80 96 % of control | dose: 100.0 mg/kg/injection, schedule: Q01DX005 (ip), vehicle: suspension in saline 110 % of control | dose: 200.0 mg/kg/injection, schedule: Q01DX005 (ip), vehicle: suspension in saline 101 % of control

CNC(=O)OCc1nn(-c2ccc(OC)cc2)c(C)c1COC(=O)NC
inactive: dose: 12.5 mg/kg/injection, schedule: Q01DX009 (ip), vehicle: distilled water + Tween-80 92 % of control | dose: 25.0 mg/kg/injection, schedule: Q01DX009 (ip), vehicle: distilled water + Tween-80 90 % of control | dose: 50.0 mg/kg/injection, schedule: Q01DX009 (ip), vehicle: distilled water + Tween-80 90 % of control | dose: 100.0 mg/kg/injection, schedule: Q01DX009 (ip), vehicle: distilled water + Tween-80 90 % of control | dose: 200.0 mg/kg/injection, schedule: Q01DX009 (ip), vehicle: distilled water + Tween-80 87 % of control

O=C(Nc1ccccc1)/C(N=Nc1ccccc1Cl)=N\Nc1cc(S(=O)(=O)O)ccc1Cl
inactive: [6] 103 % of control | [7] 102 % of control | [8] 107 % of control

C=CC(C)(CCC=C(C)C)ON(CC)CC (configuration not stated)
inactive: dose: 100.0 mg/kg/injection, schedule: Q04DX002 (ip), vehicle: saline with Tween-80 108 % of control | dose: 200.0 mg/kg/injection, schedule: Q04DX002 (ip), vehicle: saline with Tween-80 113 % of control | dose: 400.0 mg/kg/injection, schedule: Q04DX002 (ip), vehicle: saline with Tween-80 92 % of control

COc1ccc(N2CCCSC2=S)cc1
inactive: [1] 101 % of control | [2] 101 % of control | [3] 100 % of control

CCOCCN1CCN(CCCN2c3ccccc3Sc3ccc(C(F)(F)F)cc32)CC1
inactive: dose: 6.25 mg/kg/injection, schedule: Q04DX003 (ip), vehicle: saline 104 % of control and 88 % of control | dose: 12.5 mg/kg/injection, schedule: Q04DX003 (ip), vehicle: saline 110 % of control and 118 % of control | [9] 115 % of control

NC(=O)c1ccc(NC(=O)/C=C/C(=O)Nc2ccc(C(N)=O)cn2)nc1
inactive: dose: 1.65 mg/kg/injection, schedule: Q01DX009 (ip), vehicle: saline with Tween-80 109 % of control | dose: 2.5 mg/kg/injection, schedule: Q01DX009 (ip), vehicle: saline with Tween-80 118 % of control | dose: 2.5 mg/kg/injection, schedule: Q04DX003 (ip), vehicle: saline with Tween-80 100 % of control | dose: 3.75 mg/kg/injection, schedule: Q01DX009 (ip), vehicle: saline with Tween-80 104 % of control | dose: 5.0 mg/kg/injection, schedule: Q04DX003 (ip), vehicle: saline with Tween-80 100 % of control | dose: 10.0 mg/kg/injection, schedule: Q04DX003 (ip), vehicle: saline with Tween-80 100 % of control and 118 % of control | dose: 20.0 mg/kg/injection, schedule: Q04DX003 (ip), vehicle: saline with Tween-80 100 % of control | dose: 625.0 micrograms/kg/injection, schedule: Q01DX009 (ip), vehicle: saline with Tween-80 104 % of control | dose: 1250.0 micrograms/kg/injection, schedule: Q01DX009 (ip), vehicle: saline with Tween-80 122 % of control

O=C1c2ccccc2C(=O)c2c3c(cc([N+](=O)[O-])c21)OCO3
inactive: [10] 100 % of control | [11] 89 % of control | [12] 87 % of control

Cc1nc2cc[nH]n2c(=O)c1CCc1ccccc1
inactive: [10] 90 % of control | [11] 88 % of control

CCCC(Sc1ccccc1)c1cc(OC)ccc1NC(C)=O (configuration not stated)
inactive: dose: 100.0 mg/kg/injection, schedule: Q01DX001 (ip), vehicle: saline with Tween-80 100 % of control | dose: 200.0 mg/kg/injection, schedule: Q01DX001 (ip), vehicle: saline with Tween-80 100 % of control | dose: 400.0 mg/kg/injection, schedule: Q01DX001 (ip), vehicle: saline with Tween-80 93 % of control

COCOCCC1C=CCC2C(=O)C=C(OC)C(O)C12C (configuration not stated)
inactive: [6] 108 % of control | [7] 97 % of control | [8] 101 % of control

OCC1(C2CCCNC2)OCCO1 (configuration not stated)
inactive: dose: 25.0 mg/kg/injection, schedule: Q01DX005 (ip), vehicle: saline 100 % of control | [13] 111 % of control and 97 % of control | [14] 107 % of control | [15] 108 % of control

CCN1CC(O)Cc2ccccc21 (configuration not stated)
inactive: [10] 100 % of control | [11] 94 % of control

CCCCC(O)(CCCC)/C(C)=N/O
inactive: dose: 50.0 mg/kg/injection, schedule: Q01DX009 (ip), vehicle: saline with Tween-80 94 % of control | dose: 100.0 mg/kg/injection, schedule: Q01DX009 (ip), vehicle: saline with Tween-80 91 % of control | dose: 200.0 mg/kg/injection, schedule: Q01DX009 (ip), vehicle: saline with Tween-80 87 % of control

CCCCCCCCCCCCCCCCCCOC(=O)C(N)Cc1ccc(O)cc1 (configuration not stated)
inactive: dose: 60.0 mg/kg/injection, schedule: Q01DX005 (ip), vehicle: Klucel (hydroxypropylcellulose) (HPC) 106 % of control | dose: 120.0 mg/kg/injection, schedule: Q01DX005 (ip), vehicle: Klucel (hydroxypropylcellulose) (HPC) 101 % of control | dose: 240.0 mg/kg/injection, schedule: Q01DX005 (ip), vehicle: Klucel (hydroxypropylcellulose) (HPC) 105 % of control

CC(C)CNc1ncnc2c1cnn2C
inactive: [13] 94 % of control | [14] 112 % of control | [15] 115 % of control

C/C(CCl)=N/NC1=NC(c2ccccc2Cl)P(=O)(NCCCNP2(=O)SC(N/N=C(/C)CCl)=NC2c2ccccc2Cl)S1 (configuration not stated)
inactive: [10] 99 % of control | [11] 98 % of control | [12] 93 % of control

OCc1c(Cl)nc2n1CCS2
inactive: dose: 25.0 mg/kg/injection, schedule: Q01DX001 (ip), vehicle: saline with Tween-80 104 % of control | dose: 50.0 mg/kg/injection, schedule: Q01DX001 (ip), vehicle: saline with Tween-80 104 % of control
